Data taken from patent US6190849A, “Photographic element containing ballasted tetrazole derivative and inhibitor releasing coupler” (priority 1999, dated 2001).

Experiments:
[1] = Interimage in bilayer format: IDIR-2 in blue layer, IEM in green layer; details: for Cg /Cb+g (interimage): IEM or CIEM in green layer at 7.2×10^-3 mmol/m^2, higher ratio = more interimage, no-IEM check; for Relative Speed (green layer): IEM or CIEM in green layer, speed point +0.15 density above Dmin, normalized to check
Method: (§1) Bilayer photographic elements were prepared by coating the following layers on a cellulose triacetate film support (coverages are in g/m^2). Unless otherwise noted, all comparative and inventive compounds were dispersed in twice their own weight of N,N-dibutyllauramide: […] Layer 3 (Interlayer): gelatin at 0.64, ILS-1 at 0.11 and FD-1 at 0.11. […] Layer 5 (Overcoat): gelatin at 2.79 and 0.02 bis-vinylsulfonemethylether. […] Contrast of the elements was determined using the maximum slope between any two density points. In this test, the ratio of the contrast of the green only exposure to the contrast of the green of a blue and green exposure (Cg /Cb+g) is a measure of the interimage. A higher ratio means more inhibition originating from the blue and affecting the green record. Relative speed of the green layer was determined by measuring the speed point +0.15 density units above Dmin and normalizing to the check position.

[2] = Interimage in bilayer format: IDIR-6 in blue layer, IEM in green layer; details: for Cg /Cb+g (interimage): IEM or CIEM in green layer at 7.2×10^-3 mmol/m^2; for Relative Speed (green layer): IEM or CIEM in green layer, normalized to check
Method: as §1

[3] = Interimage in bilayer format: IDIR-1 in green layer, IEM in blue layer
Method: Samples of each element were given a stepped exposure of either green light only or blue and green light combined and processed in the KODAK FLEXICOLOR™ (C4 1) process as described in British Journal of Photography Annual, 1988, pp196-198. Contrast of the elements was determined using the maximum slope between any two density points. […] A higher ratio means more inhibition originating from the blue and affecting the green record. Relative speed of the green layer was determined by measuring the speed point +0.15 density units above Dmin and normalizing to the check position.
Additional bilayer elements were prepared in a manner similar to above by coating the following layers:
Layer 1 (Antihalation Layer): black colloidial elemental silver at 0.34 and gelatin at 2.41.
Layer 2 (Causer Layer): gelatin at 2.79, IDIR-1 at 0.054, coupler M-1 (dispersed as described previously) added at 0.045, and 0.81 green sensitized AgIBr tabular emulsion.
Layer 3 (Interlayer): gelatin at 0.64, ILS-1 at 0.11 and FD-1 at 0.11.
Layer 4 (Receiver Layer): gelatin at 2.79, coupler Y-2 at 1.08, IDIR-6 at 0.076, 0.79 blue sensitized AgIBr tabular emulsion and (when present) IEM-4 (dispersed as above) at 0.0023.
Layer 5 (Overcoat): gelatin at 2.79 and 0.02 bis-vinylsulfonemethylether.

[4] = Interimage in multilayer format (density change of receiver record); details: CDIR-1 in red
Text: Multilayer Film Example ML-1:
Layer 1 (Antihalation layer): black collodial silver sol at 0.135; ILS-1 at 0.162,
Layer 2 (Slow cyan layer): a blend of two red sensitized (both with a mixture of RSD-1 and RSD-2) tabular silver iodobromide emulsions: (i) 0.66×0.12, 4.1 mole % I at 0.302 (ii) 0.55×0.08, 1.5 mole % I at 0.464; cyan dye-forming coupler C-1 at 0.535; DIR coupler CDIR-1 at 0.027; bleach accelerator releasing coupler B-1 at 0.057; masking coupler MC-1 at 0.032; and gelatin at 1.68.
Layer 3 (Mid cyan layer): a blend of two red sensitized (same as above) tabular silver iodobromide emulsions: (i) […], 4.1 mole % I at 0.194 (ii) 1.07×0.11, 4.1 mole % I at 0.238; cyan coupler C-1 at 0.171; CDIR-1 at 0.019; MC-1 at 0.032; B-1 at 0.008; and gelatin at 1.08.
Layer 4 (Fast cyan layer): a red sensitized (same as above) tabular silver iodobromide emulsion (1.33×0.12, 4.1 mole % I) at 0.594; C-1 at 0.184; CDIR-1 at 0.027; MC-1 at 0.022; and gelatin at 0.918.
Layer 5 (Interlayer): ILS-1 at 0.086 and gelatin at 0.540.
Layer 6 (Slow magenta layer): a blend of two green sensitized (both with a mixture of GSD-1 and GSD-2) silver iodobromide emulsions: (i) 0.81×0.12, 2.6 mole % iodide at 0.346 and (ii) 0.55×0.08, 1.5 mole % iodide at 0.130; magenta dye forming coupler M-1 at 0.270; MC-2 at 0.086; IDIR-5 at 0.011; and gelatin at 1.08.
Layer 7 (Mid magenta layer): a blend of two green sensitized (same as above) tabular silver iodobromide emulsions (i) 1.22×0.11, 4.1 mole % I at 0.248 and (ii) 1.07×0.11, 4.1 mole % I at 0.248; M-1 at 0.124; MC-2 at 0.119; IDIR-5 at 0.043; OxDS-2 at 0.016; and gelatin at 1.22.
Layer 8 (Fast magenta layer): a green sensitized tabular silver iodobromide (1.33×0.12, 4.1 mole % I) emulsion at 0.486; M-1 at 0.076; MC-2 at 0.054; B-1 at 0.003; IDIR-5 at 0.015; OxDS-2 at 0.009; and gelatin at 1.02.
Layer 9 (Yellow filter layer): yellow filter dye FD-1 at 0.054; ILS-1 at 0.086; and gelatin at 0.648.
Layer 10 (Slow yellow layer): a blend of three blue sensitized (all with a mixture of BSD-1 and BSD-2) tabular silver iodobromide emulsions (i) 0.55×0.08, 1.5 mole % I at 0.270 (ii) […], 1.5 mole % I at 0.248 and (iii) 1.25×0.14, 4.1 mole % I at 0.400; yellow dye forming coupler Y-2 at 1.08; IDIR-6 at 0.076; CDIR-1 at 0.032; B-1 at 0.022; and gelatin at 1.879.
Layer 11 (Fast yellow layer): a blend of two blue sensitized (both with a mixture of BSD-1 and BSD-2) tabular silver iodobromide emulsions (i) 1.25×0.14, 4.1 mole % I at 0.108 (ii) 2.67×0.13, 4.1 mole % I at 0.378; Y-2 at 0.238; IDIR-6 at 0.076; B-1 at 0.005; and gelatin at 0.810.
Layer 12 (Protective overcoat and UV filter layer): silver bromide Lippman emulsion at 0.216; UV-1 at a total of 0.108; gelatin at 1.242 and bis(vinylsulfonyl)methane hardener at 1.75% of total gelatin weight.
Surfactants, coating aids, emulsion addenda, sequestrants, thickeners, lubricants, matte and tinting dyes were added to the appropriate layers as is common in the art. […]
These multilayer coatings were given a stepped exposure in one color record but only flashed (non-imagewise exposure) in the other two records and processed as described for the bilayer experiments. To monitor interimage, a step nearest to density of 1.5 in the stepped color record (the causer) was chosen, and the difference in density of the other color records (the receivers) at that step and at the no exposure step of the causer was determined. […]

[5] = ML-4: IEM-4 in green, IDIR-2 in blue

Row | SMILES | Cg /Cb+g (interimage) [1] | Relative Speed (green layer) [1] | Cg /Cb+g (interimage) [2] | Relative Speed (green layer) [2] | Cb /Cb+g (interimage) ([3]; IEM-4 in blue layer at 0.0023 g/m^2) | Relative Speed ([3]; IEM-4 in blue layer at 0.0023 g/m^2, normalized to check) | R→G density difference (interimage) ([4]; ML-3: IEM-4 in green, IDIR-6 in blue) | B→G density difference (interimage) ([4]; ML-3: IEM-4 in green, IDIR-6 in blue, more negative = increased interimage) | B→G density difference (interimage) [4, 5] | R→G density difference (interimage) [4, 5]
1 | CC(=O)Nc1cccc(-n2nn[nH]c2=S)c1 [CIEM-1] | 1.19 | 1.01 | 1.16 | 1.01 |  |  |  |  |  | 
2 | CCCCCCCOC(=O)C(CCSC)n1nn[nH]c1=S (racemic) [IEM-4] | 1.62 | 0.96 | 1.35 | 0.94 | 1.57 | 0.98 | -0.206 | -0.129 | -0.212 | -0.238
